Structures can show the parent of a compound that is named as a salt. Where two headings read alike, the source gives them in different places.
Tests used:
[1] = test system: Staphylococcus aureus CCM 4516/08; test: Screen against bacteria, MIC/IC80; assay type: cell-based; details: SA
[2] = test system: Staphylococcus aureus H 5996/08 Methiciline-resistant; test: Screen against bacteria, MIC/IC80; assay type: cell-based; details: MRSA
[3] = test system: Staphylococcus epidermidis H 6966/08; test: Screen against bacteria, MIC/IC80; assay type: cell-based; details: SE
[4] = test system: Enterococcus sp. J 14365/08; test: Screen against bacteria, MIC/IC80; assay type: cell-based; details: EF
[5] = test system: Escherichia coli CCM4517; test: Screen against bacteria, MIC/IC80; assay type: cell-based; details: EC
[6] = test system: Klebsiella pneumoniae D 11750/08; test: Screen against bacteria, MIC/IC80; assay type: cell-based; details: KP
[7] = test system: Klebsiella pneumoniae J 14368/08 ESBL-positive; test: Screen against bacteria, MIC/IC80; assay type: cell-based; details: KP-E
[8] = test system: Pseudomonas aeruginosa CCM 1961; test: Screen against bacteria, MIC/IC80; assay type: cell-based; details: PA
[9] = test system: fungi and bacteria; assay type: cell-based
Procedure: All the 12 bromide salts and 12 octylsulfate CILs in the table below were screened against fungi and bacteria.
CILs with bromide as anion have been screened against the following Fungi and bacteria:
. […] MICs were determined twice and in duplicate.

[10] = test system: Candida albicans ATCC 44859; test: In vitro antifungal activity, MIC by microdilution (NCCLS M27-A)
[11] = test system: Candida albicans ATCC 90028; test: as above
Procedure: (§2) In vitro antifungal activities of the compounds were evaluated on the collection of fungal strains deposited at the Department of Biological and Medical Sciences, Faculty of Pharmacy, Charles University, Czech Republic. All the isolates were maintained on Sabouraud dextrose agar prior to being tested.
(§3) Minimum inhibitory concentrations (MICs) were determined by the microdilution format of the NCCLS M27-A guidelines. […] RPMI 1640 (Sevapharma, Prague) medium supplemented with L-glutamine and buffered with 0.165 M morpholinepropanesulfonic acid to pH 7.0 was used as the test medium. The wells of the microdilution tray contained 100 μl of the RPMI 1640 medium with 2-fold serial dilutions of the compounds (1000 to 0.24 μmol/l for the new compounds) and 100 μl of inoculum suspension. Fungal inoculum in RPMI 1640 was prepared to give a final concentration of 5×103±0.2 cfu·ml-1. The trays were incubated at 35° C. and MICs were read visually for filamentous fungi and photometrically for yeasts as an optical density (OD) at 540 nm after 24 h and 48 h. The MICs were defined as 80% inhibition of the growth of control. MICs were determined twice and in duplicate. The deviations from the usually obtained were no higher than the nearest concentration value up and down the dilution scale.

[12] = test system: Candida parapsilosis ATCC 22019; test: as above; details: CP
[13] = test system: Candida krusei ATCC 6258; test: as above
Procedure: as §2, §3

[14] = test system: Candida krusei E28; test: as above
Procedure: All the isolates were maintained on Sabouraud dextrose agar prior to being tested.
as §3

[15] = test system: Candida tropicalis 156; test: as above; details: CT
[16] = test system: Candida glabrata 20/l; test: as above; details: CG
Procedure: as §2, §3

[17] = test system: Candida lusitaniae 2446/l; test: as above; details: CL
Procedure: as §2, §3

[18] = test system: Aspergillus fumigatus 231; test: as above; details: AF
Procedure: as §2, §3

[19] = test system: Absidia corymbifera 272; test: as above; details: AC
[20] = test system: Trichophyton mentagrophytes 445; test: as above; details: TM
Procedure: as §2, §3

[21] = test system: Escherichia Coli; test: Toxicity of pyridinium CILs, IC50 against bacteria strains; assay type: cell-based; details: read-out: IC50 values
Procedure: (§1) KG 2013 and KG 2015 screened against 5 bacteria strains: Pseudomonas Putida (CP1), Pseudomonas Putida (KT2440), Escherichia Coli, Bacillus Subtilis, and Pseudomonas Fluorescens. KG 1043 screened against 4 strains Pseudomonas Putida (CP1), Pseudomonas Putida (KT2440), Escherichia Coli, and Pseudomonas Fluorescens. All 3 pyridinium ionic liquids have low antimicrobial toxicity (IC50>1 mM).

[22] = test system: Pseudomonas Fluorescens; test: as above; assay type: cell-based; details: read-out: IC50 values
Procedure: as §1

[23] = test system: Pseudomonas Putida (CP1); test: as above; assay type: cell-based; details: read-out: IC50 values
Procedure: as §1

[24] = test system: Pseudomonas Putida (KT2440); test: as above; assay type: cell-based; details: read-out: IC50 values
Procedure: as §1

[25] = test system: Bacillus Subtilis; test: as above; assay type: cell-based; details: read-out: IC50 values
Procedure: as §1

CCCCCCCCOS(=O)(=O)[O-].CCCCCOC(=O)[C@@H](OC(=O)Cn1cc[n+](C)c1)c1ccccc1 [KG302, S-3-methyl-1-[1-(pentoxycarbonyl)-1-phenylmethoxycarbonylmethyl]imidazolium octyl sulphate]
MIC/IC80 ([1]; 24 h): >1000 µM | MIC/IC80 ([1]; 48 h): >1000 µM | MIC/IC80 ([2]; 24 h): >1000 µM | MIC/IC80 ([2]; 48 h): >1000 µM | MIC/IC80 ([3]; 24 h): 1000 µM | MIC/IC80 ([3]; 48 h): >1000 µM | MIC/IC80 ([4]; 24 h): >1000 µM | MIC/IC80 ([4]; 48 h): >1000 µM | MIC/IC80 ([5]; 24 h): >1000 µM | MIC/IC80 ([5]; 48 h): >1000 µM | MIC/IC80 ([6]; 24 h): >1000 µM | MIC/IC80 ([6]; 48 h): >1000 µM | MIC/IC80 ([7]; 24 h): >1000 µM | MIC/IC80 ([7]; 48 h): >1000 µM | MIC/IC80 ([8]; 24 h): >1000 µM | MIC/IC80 ([8]; 48 h): >1000 µM | toxicity / inhibition of the growth of fungi and bacteria [9]: inhibit the growth of fungi and bacteria | MIC/IC80 ([10]; CA1, 24 h): 1000 µM | MIC/IC80 ([10]; CA1, 48 h): 1000 µM | MIC/IC80 ([11]; CA2, 24 h): >1000 µM | MIC/IC80 ([11]; CA2, 48 h): >1000 µM | MIC/IC80 ([12]; 24 h): >1000 µM | MIC/IC80 ([12]; 48 h): >1000 µM | MIC/IC80 ([13]; CK1, 24 h): >1000 µM | MIC/IC80 ([13]; CK1, 48 h): >1000 µM | MIC/IC80 ([14]; CK2, 24 h): >1000 µM | MIC/IC80 ([14]; CK2, 48 h): >1000 µM | MIC/IC80 ([15]; 24 h): >1000 µM | MIC/IC80 ([15]; 48 h): >1000 µM | MIC/IC80 ([16]; 24 h): >1000 µM | MIC/IC80 ([16]; 48 h): >1000 µM | MIC/IC80 ([17]; 24 h): >1000 µM | MIC/IC80 ([17]; 48 h): >1000 µM | MIC/IC80 ([18]; 24 h): 1000 µM | MIC/IC80 ([18]; 48 h): >1000 µM | MIC/IC80 ([19]; 24 h): 1000 µM | MIC/IC80 ([19]; 48 h): >1000 µM | MIC/IC80 ([20]; 72 h): 250 µM | MIC/IC80 ([20]; 120 h): 500 µM

CCCCCCCCOS(=O)(=O)[O-].CCCCCOC(=O)C(OC(=O)Cn1cc[n+](C)c1)c1ccccc1 (centres unmarked) [KG304, RS-3-methyl-1-[1-(pentoxycarbonyl)-1-phenylmethoxycarbonylmethyl]imidazolium octyl sulphate]
MIC/IC80 ([1]; 24 h): 1000 µM | MIC/IC80 ([1]; 48 h): 1000 µM | MIC/IC80 ([2]; 24 h): >1000 µM | MIC/IC80 ([2]; 48 h): >1000 µM | MIC/IC80 ([3]; 24 h): 1000 µM | MIC/IC80 ([3]; 48 h): >1000 µM | MIC/IC80 ([4]; 24 h): >1000 µM | MIC/IC80 ([4]; 48 h): >1000 µM | MIC/IC80 ([5]; 24 h): >1000 µM | MIC/IC80 ([5]; 48 h): >1000 µM | MIC/IC80 ([6]; 24 h): >1000 µM | MIC/IC80 ([6]; 48 h): >1000 µM | MIC/IC80 ([7]; 24 h): >1000 µM | MIC/IC80 ([7]; 48 h): >1000 µM | MIC/IC80 ([8]; 24 h): >1000 µM | MIC/IC80 ([8]; 48 h): >1000 µM | toxicity / inhibition of the growth of fungi and bacteria [9]: inhibit the growth of fungi and bacteria | MIC/IC80 ([10]; CA1, 24 h): 1000 µM | MIC/IC80 ([10]; CA1, 48 h): 1000 µM | MIC/IC80 ([11]; CA2, 24 h): >1000 µM | MIC/IC80 ([11]; CA2, 48 h): >1000 µM | MIC/IC80 ([12]; 24 h): >1000 µM | MIC/IC80 ([12]; 48 h): >1000 µM | MIC/IC80 ([13]; CK1, 24 h): 1000 µM | MIC/IC80 ([13]; CK1, 48 h): >1000 µM | MIC/IC80 ([14]; CK2, 24 h): >1000 µM | MIC/IC80 ([14]; CK2, 48 h): >1000 µM | MIC/IC80 ([15]; 24 h): >1000 µM | MIC/IC80 ([15]; 48 h): >1000 µM | MIC/IC80 ([16]; 24 h): >1000 µM | MIC/IC80 ([16]; 48 h): >1000 µM | MIC/IC80 ([17]; 24 h): >1000 µM | MIC/IC80 ([17]; 48 h): >1000 µM | MIC/IC80 ([18]; 24 h): 500 µM | MIC/IC80 ([18]; 48 h): >1000 µM | MIC/IC80 ([19]; 24 h): 1000 µM | MIC/IC80 ([19]; 48 h): 1000 µM | MIC/IC80 ([20]; 72 h): 250 µM | MIC/IC80 ([20]; 120 h): 500 µM

CCCCOC(=O)C(OC(=O)C[n+]1ccccc1)c1ccc2c(c1)OCO2 (centres unmarked) [KG 1043, RS-[1-(butoxycarbonyl)-1-(3,4-methylenedioxyphenyl)methoxycarbonylmethyl]pyridinium bromide]
IC50 ([21]; E. Coli): > 1000 µM | IC50 ([22]; P. Fluorescens): > 1000 µM | IC50 ([23]; P. Putida (CP1)): > 1000 µM | IC50 ([24]; P. Putida (KT2440)): > 1000 µM

COC(=O)C(c1ccc(OC)c(OC)c1)[n+]1ccccc1 (centres unmarked) [KG 2013, RS-2-(3,4-dimethoxyphenyl)-2-(pyridinium) methyl acetate, chloride salt]
IC50 ([25]; Bacillus subtilis): > 1000 µM | IC50 ([21]; Escherichia coli): > 1000 µM | IC50 ([22]; Pseudomonas fluorescens): > 1000 µM | IC50 ([23]; Pseudomonas putida): > 1000 µM | IC50 ([24]; Pseudomonas putida): > 1000 µM

COC(=O)C(c1ccc2c(c1)OCO2)[n+]1ccccc1 (centres unmarked) [KG 2015, RS-2-(3,4-methylendioxyphenyl)-2-(pyridinium) methyl acetate, bromide salt]
IC50 ([25]; B. Subtilis): > 1000 µM | IC50 ([21]; E. Coli): > 1000 µM | IC50 ([22]; P. Fluorescens): > 1000 µM | IC50 ([23]; P. Putida (CP1)): > 1000 µM | IC50 ([24]; P. Putida (KT2440)): > 1000 µM

R-3-methyl-1-[1-(pentoxycarbonyl)-1-phenylmethoxycarbonylmethyl]imidazolium octyl sulphate [KG303]
MIC/IC80 ([1]; 24 h): 1000 µM | MIC/IC80 ([1]; 48 h): 1000 µM | MIC/IC80 ([2]; 24 h): 1000 µM | MIC/IC80 ([2]; 48 h): >1000 µM | MIC/IC80 ([3]; 24 h): 500 µM | MIC/IC80 ([3]; 48 h): 1000 µM | MIC/IC80 ([4]; 24 h): >1000 µM | MIC/IC80 ([4]; 48 h): >1000 µM | MIC/IC80 ([5]; 24 h): >1000 µM | MIC/IC80 ([5]; 48 h): >1000 µM | MIC/IC80 ([6]; 24 h): >1000 µM | MIC/IC80 ([6]; 48 h): >1000 µM | MIC/IC80 ([7]; 24 h): >1000 µM | MIC/IC80 ([7]; 48 h): >1000 µM | MIC/IC80 ([8]; 24 h): >1000 µM | MIC/IC80 ([8]; 48 h): >1000 µM | toxicity / inhibition of the growth of fungi and bacteria [9]: inhibit the growth of fungi and bacteria | MIC/IC80 ([10]; CA1, 24 h): 500 µM | MIC/IC80 ([10]; CA1, 48 h): >1000 µM | MIC/IC80 ([11]; CA2, 24 h): 1000 µM | MIC/IC80 ([11]; CA2, 48 h): >1000 µM | MIC/IC80 ([12]; 24 h): >1000 µM | MIC/IC80 ([12]; 48 h): >1000 µM | MIC/IC80 ([13]; CK1, 24 h): 1000 µM | MIC/IC80 ([13]; CK1, 48 h): >1000 µM | MIC/IC80 ([14]; CK2, 24 h): 1000 µM | MIC/IC80 ([14]; CK2, 48 h): >1000 µM | MIC/IC80 ([15]; 24 h): >1000 µM | MIC/IC80 ([15]; 48 h): >1000 µM | MIC/IC80 ([16]; 24 h): >1000 µM | MIC/IC80 ([16]; 48 h): >1000 µM | MIC/IC80 ([17]; 24 h): >1000 µM | MIC/IC80 ([17]; 48 h): >1000 µM | MIC/IC80 ([18]; 24 h): 1000 µM | MIC/IC80 ([18]; 48 h): 1000 µM | MIC/IC80 ([19]; 24 h): 1000 µM | MIC/IC80 ([19]; 48 h): 1000 µM | MIC/IC80 ([20]; 72 h): 250 µM | MIC/IC80 ([20]; 120 h): 500 µM

— patent publication US8785655B2, “Ionic liquid solvents” (Dublin City University, priority 2009, dated 2014)
